In the supplement of paper PMC10307832:

Key:
Assay in all cases: relative viability (nuclei count vs DMSO), 5 days (fraction); higher = more cells survive
[1] = compound: COc1cc(Nc2c(C#N)cnc3cc(OCCCN4CCN(C)CC4)c(OC)cc23)c(Cl)cc1Cl [Bosutinib] + CC(=O)Nc1cccc(-n2c(=O)n(C3CC3)c(=O)c3c(Nc4ccc(I)cc4F)n(C)c(=O)c(C)c32)c1 [Trametinib] (partner 0.02 µM)
Summary of the method: (§1)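 One day after seeding in 1536-well plates, lung cancer cell lines were dosed by pin tool. Dosing was either single-drug or a fixed anchor-drug dose plus five library-drug doses (not always all listed) in √10 steps. After 5 days, nuclei were stained in one fix-and-stain step and counted on 4× images, and relative viability is the nuclei count of treated wells over that of vehicle wells, given as the median of duplicate plates.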

[2] = compound: COc1cc(Nc2c(C#N)cnc3cc(OCCCN4CCN(C)CC4)c(OC)cc23)c(Cl)cc1Cl [Bosutinib] + CC1(C)CCC(c2ccc(Cl)cc2)=C(CN2CCN(c3ccc(C(=O)NS(=O)(=O)c4ccc(N[C@H](CCN5CCOCC5)CSc5ccccc5)c(S(=O)(=O)C(F)(F)F)c4)cc3)CC2)C1 [Navitoclax] (partner 0.5 µM)
Summary of the method: as §1

[3] = compound: COc1cc(Nc2c(C#N)cnc3cc(OCCCN4CCN(C)CC4)c(OC)cc23)c(Cl)cc1Cl [Bosutinib] + COc1cc2c(Oc3ccc(NC(=O)C4(C(=O)Nc5ccc(F)cc5)CC4)cc3F)ccnc2cc1OCCCN1CCOCC1 [Foretinib] (partner 0.25 µM)
Summary of the method: as §1

[4] = compound: COc1cc(Nc2c(C#N)cnc3cc(OCCCN4CCN(C)CC4)c(OC)cc23)c(Cl)cc1Cl [Bosutinib] + CS(=O)(=O)CCNCc1ccc(-c2ccc3ncnc(Nc4ccc(OCc5cccc(F)c5)c(Cl)c4)c3c2)o1 [Lapatinib] (partner 2 µM)
Summary of the method: as §1

[5] = compound: COc1cc(Nc2c(C#N)cnc3cc(OCCCN4CCN(C)CC4)c(OC)cc23)c(Cl)cc1Cl [Bosutinib] + Cc1nc(Nc2ncc(C(=O)Nc3c(C)cccc3Cl)s2)cc(N2CCN(CCO)CC2)n1 [Dasatinib] (partner 0.075 µM)
Summary of the method: as §1

Cell Line	relative viability ([1]; first compound 0.01 µM)	relative viability ([1]; first compound 0.03162 µM)	relative viability ([1]; first compound 0.1 µM)	relative viability ([1]; first compound 1 µM)	relative viability ([2]; first compound 0.01 µM)	relative viability ([2]; first compound 0.03162 µM)	relative viability ([2]; first compound 0.1 µM)	relative viability ([2]; first compound 1 µM)	relative viability ([3]; first compound 0.01 µM)	relative viability ([3]; first compound 0.03162 µM)	relative viability ([3]; first compound 0.1 µM)	relative viability ([3]; first compound 1 µM)	relative viability ([4]; first compound 0.01 µM)	relative viability ([4]; first compound 0.03162 µM)	relative viability ([4]; first compound 0.1 µM)	relative viability ([4]; first compound 1 µM)	relative viability ([5]; first compound 0.01 µM)	relative viability ([5]; first compound 0.03162 µM)	relative viability ([5]; first compound 0.1 µM)	relative viability ([5]; first compound 1 µM)
201T	0.745	0.696	0.682	0.708	1.2	1.2	1.2	1.14	1.08	1.06	0.991	0.548	1.03	1.05	1.01	0.96	0.612	0.571	0.57	0.544
A-427	0.832	0.822	0.783	0.681	0.947	0.97	1.05	0.888	1.02	1	1.14	0.972	1.02	0.972	1	1.03	0.767	0.843	0.665	0.732
ABC-1	–	–	–	–	–	–	–	–	0.902	1.17	1.21	0.895	1.26	1.2	1.05	0.786	0.548	0.605	0.65	0.488
BEN	1.02	0.855	1.01	0.804	0.0464	0.0561	0.0932	0.0522	0.755	0.637	0.682	0.516	0.619	0.699	0.785	0.52	0.315	0.339	0.344	0.368
CAL-12T	0.28	0.366	0.334	0.234	1.23	1.16	1.09	1.12	1.11	1.09	1.11	0.834	0.755	0.706	0.82	0.551	0.383	0.426	0.417	0.467
COR-L23	0.706	0.548	0.568	0.541	1.17	1.06	0.959	1.06	1.04	0.938	0.971	0.967	1.01	0.892	1.04	1.08	0.551	0.537	0.501	0.619
COR-L 105	0.51	0.381	0.42	0.389	0.808	0.825	0.84	0.492	1.05	1.05	0.895	0.844	0.384	0.403	0.391	0.3	0.383	0.363	0.397	0.353
ChaGo-K-1	0.91	0.89	0.891	0.875	0.602	1.33	1.31	1.56	1	0.866	0.981	0.931	–	–	–	–	0.662	0.56	0.637	0.6
EKVX	0.306	0.334	0.364	0.228	0.882	0.929	0.914	0.807	0.723	0.82	0.693	0.469	0.231	0.216	0.242	0.172	0.549	0.505	0.611	0.491
EMC-BAC-2	0.848	0.887	0.857	0.773	1.2	1.1	1.15	1.15	1.02	0.981	1.06	0.768	0.878	0.835	0.86	0.873	0.356	0.325	0.347	0.328
EPLC-272H	0.297	0.281	0.281	0.281	1.05	1.09	1.15	1.35	0.657	0.677	0.704	0.58	1.19	0.931	1.02	1.04	0.476	0.425	0.447	0.409
H3255	–	0.578	0.63	0.422	0.669	0.574	0.485	0.218	0.835	0.885	0.969	0.79	0.251	0.238	0.235	0.258	0.369	0.381	0.364	0.288
HARA	0.943	0.745	0.633	0.57	1.16	1.1	1.12	1.19	0.869	0.872	0.878	0.646	0.7	0.657	0.757	0.76	0.303	0.296	0.304	0.385
HCC-15	0.396	0.457	0.383	0.328	0.707	0.715	0.741	0.689	1.07	1.05	1.04	0.874	0.901	0.858	0.829	0.812	0.651	0.662	0.678	0.674
HCC-44	1.03	1.04	1.09	1.05	1.03	0.926	0.969	0.849	–	–	–	–	1.03	0.96	0.982	1.07	–	–	–	–
HCC-78	0.84	0.712	0.768	0.725	0.798	0.737	0.752	0.661	0.553	0.506	0.571	0.52	0.468	0.798	0.817	0.7	0.356	0.478	0.46	0.373
